Literature values as cited in patent publication US20030054382A1, “Infection of eukaryotic cells with viruses in vitro” (priority 1999, published 2003).

Test system: HCV
Conditions: pretreatment of the cells to be infected

dextran sulfate
attachment of HCV to the cell surface and infection of the cells: inhibits the attachment of HCV to the cell surface and prevents any infection of the cells
